# According to US20240343747A1, “Heteroaryl compounds as inhibitors of TYK2, composition and application thereof” (Accro Bioscience (HK) Limited, priority 2021, published 2024):
# Assays:
# hERG channel = hERG channel (Homo sapiens (Human), UniProt Q12809); test: in vitro; settings: human
# Protocol: Chinese hamster ovary (CHO) cell line, CHO-hERG cells were used in this study. CHO-hERG cells were derived from Sophion Biosciences Inc. (Ballerup, Denmark) in Suzhou, China. The cell reserve fluid is frozen in liquid nitrogen tanks. Each batch of stored cell fluid is tested for mycoplasma contamination. The cells were no longer used after 30 generations.
# The whole cell patch clamp technique was used to record hERG current at room temperature. The patch-clamp amplifier outputs signals through […] conversion and 2.9 KHz low-pass filtering. Data records were collected by Patchmaster Pro software.
# Cells were planted in a cell recording tank and placed on an inverted microscope platform. One cell in the recording tank was randomly selected for experiment. The perfusion system was fixed on an inverted microscope platform and cells were continuously irrigated with ECS.
# Manual patch clamp recording microelectrode was prepared with capillary glass tube, which was filled with intracellular fluid. On the day of the patch clamp test, the electrodes were prepared using a borosilicate glass tube (GC150TF-10, Harvard Apparatus Co. UK). The resistance is between 2-5 MΩ after the electrode is filled with ICS.
# The clamping voltage was −80 mV, and the first step was depolarized to +60 mV for 850 ms to open the hERG channel. The voltage is then set to −50 mV and maintained for 1275 ms, resulting in a rebound current or tail current, the peak of which is measured and used for analysis. Finally, the voltage is restored to the clamping voltage (−80 mV). During the test, the command voltage program was repeated every 15 s.
# At the beginning of recording the perfusion of the solvent control working solution, the test substance/positive control working solution to be tested can be poured after monitoring the tail current peak until more than 3 scanning curves are stable, until the inhibition of the test substance/positive control working solution to the hERG current peak reaches a stable state. Generally, the most recent three consecutive peak values of the current curve basically coincide as a criterion to judge whether the state is stable. After reaching a stable state, continue to pour one concentration of the test sample. One or more test subjects/positive controls, or multiple concentrations of the same drug, can be tested on a cell, and the different test subjects/positive controls need to be rinsed with a solvent control working fluid until the hERG current returns to more than 80% of its pre-drug level.
# The concentration of positive control cisapride was 0.1 μM, and two cells were repeated.
# TYK2 = TYK2 (Mus musculus (Mouse), UniProt Q9R117); test: Luciferase assay in L929 ISRE cells stimulated with IFN-α; assay type: cell-based; settings: IFN-α 100 ng/mL; for inhibition at 1 µM: read-out: Inhibitory activity % (1000 nM)
# Protocol: • 1. L929 ISRE cells (5000 cells/well) were seeded on 96-well plates and incubated overnight at room temperature; • 2. The cells were pretreated by adding different concentrations (10 nM, 50 nM, 100 nM, 200 nM or 1000 nM) of the test compounds for 2 hours; • 3. Added IFN-α (100 ng/mL) to stimulate cells for 6 hours; • 4. Removed the upper medium, add PBS (100 μL) and washed, then removed PBS; • 5. Added PLB lysis solution (50 μL) to each well, shook the well for 15 minutes; • 6. Transferred PLB lysis solution (30 μL) to a new 96-well whiteboard, added LAR II reagent (LAR II), then quickly read the […]; • 7. Added Stop & Glo reagent (30 μL), then read the 450 nm OD value using the plate washer. • 8. The final results in Table 3 were the OD value in step 6/OD value in step 7.
# JAK1 JH1 = JAK1 JH1 (Homo sapiens (Human), UniProt P23458); test: Competitive binding assay (kinase-tagged phage, qPCR), JAK1 JH1
# Protocol: (§1) For most assays, kinase-tagged T7 phage strains were prepared in an E. coli host derived from the BL21 strain. E. coli were grown to log-phase and infected with T7 phage and incubated with shaking at 32° C. until lysis. The lysates were centrifuged and filtered to remove cell debris. The remaining kinases were produced in HEK-293 cells and subsequently tagged with DNA for qPCR detection. Streptavidin coated magnetic beads were treated with biotinylated small molecule ligands for 30 minutes at room temperature to generate affinity resins for kinase assays. The liganded beads were blocked with excess biotin and washed with blocking buffer (SeaBlock (Pierce), 1% BSA, 0.05% Tween 20, 1 mM DTT) to remove unbound ligand and to reduce non-specific binding. […] Test compounds were prepared as 111X stocks in 100% DMSO. Dissociation constants (Kds) were determined using an 11-point 3-fold compound dilution series with three DMSO control points. All compounds for Kd measurements are distributed by acoustic transfer (non-contact dispensing) in 100% DMSO. The compounds were then diluted directly into the assays such that the final concentration of DMSO was 0.9%. All reactions performed in polypropylene 384-well plate. Each was a final volume of 0.02 ml. The assay plates were incubated at room temperature with shaking for 1 hour and the affinity beads were washed with wash buffer (1×PBS, 0.05% Tween 20). The beads were then re-suspended in elution buffer (1×PBS, 0.05% Tween 20, 0.5 μM nonbiotinylated affinity ligand) and incubated at room temperature with shaking for 30 minutes. The kinase concentration in the eluates was measured by qPCR.
# (§2) An 11-point 3-fold serial dilution of each test compound was prepared in 100% DMSO at 100× final test concentration and subsequently diluted to 1× in the assay (final DMSO concentration=1%). Most Kds were determined using a compound top concentration=30,000 nM. If the initial Kd determined was <0.5 nM (the lowest concentration tested), the measurement was repeated with a serial dilution starting at a lower top concentration.
# (§3) Binding constants (Kds) were calculated with a standard dose-response curve using the Hill equation: […]
# (§4) The Hill Slope was set to −1.
# (§5) Curves were fitted using a non-linear least square fit with the Levenberg-Marquardt algorithm.
# TYK2 JH2 = TYK2 JH2 (Homo sapiens (Human), UniProt P29597); test: Competitive binding assay (kinase-tagged phage, qPCR), TYK2 JH2
# Protocol: as §1, §2, §3, §4, §5
# [1] = system: production of CXCL-10 stimulated by IFNα in PBMC; test: ELISA: production of CXCL-10 stimulated by IFNα in PBMC; assay type: cell-based; settings: CXCL-10 production stimulated by IFNα in PBMC, ELISA
# Protocol: • 1. Soak plate: Add 300 μL 1×washing solution and let stand for 30 seconds. After discarding the washing solution, dry the microporous plate on absorbent paper. • 2. Add standard: Add 100 μL of 2-fold standard to standard well. Add 100 μL standard dilution (serum/plasma sample) or culture medium (cell culture supernatant sample) to blank well. • 3. Add sample: Serum/plasma: Add 50 μL 1×assay buffer and 50 μL sample to sample well. Cell culture supernatant: Add 100 μL cell culture supernatant to sample well. • 4. Add detection antibody: Add 50 μL diluted detection antibody (1:100 diluted) to each well. Make sure steps 4, 5 and 6 are added continuously without interruption. The sampling process was completed within 15 minutes. • 5. Incubation: Use sealing plate film to seal the plate. shake at 300 rpm and incubate for 2 hours at room temperature. • 6. Washing: Discard the liquid, add 300 μL of washing solution and wash the plate 6 times. pat dry on blotting paper after each wash. To obtain the desired experimental performance, the residual liquid must be completely removed. • 7. Enzyme addition: Add 100 μL diluted horseradish peroxidase labeled streptavidin to each well (1:100 diluted). • 8. Incubation: Seal the plate with a new sealing film. shake at 300 rpm and incubate at room temperature for 45 minutes. • 9. Washing. Repeat step […]. • 10. Add substrate for color development: Add 100 μL of color development substrate TMB to each well, keep away from light, and incubate at room temperature for 5-30 minutes. • 11. Add Stop Solution: Add 100 μL stop solution to each well. The color changed from blue to yellow. If the color appears green or the color changes unevenly, gently tap the frame of the plate to mix well. • 12. Assay readout: Within 30 minutes, perform dual wavelength detection using a microplate reader to measure the OD at the absorption maximum at 450 nm and reference wavelengths at 570 nm or 630 nm. The calibrated OD value is the measured value at 450 nm minus the measured value at 570 nm or 630 nm.
# JAK2 JH1 = JAK2 JH1 (Homo sapiens (Human), UniProt O60674); test: Competitive binding assay (kinase-tagged phage, qPCR), JAK2 JH1
# Protocol: For most assays, kinase-tagged T7 phage strains were prepared in an E. coli host derived from the BL21 strain. E. coli were grown to log-phase and infected with T7 phage and incubated with shaking at 32° C. until lysis. The lysates were centrifuged and filtered to remove cell debris. The remaining kinases were produced in HEK-293 cells and subsequently tagged with DNA for qPCR detection. Streptavidin coated magnetic beads were treated with biotinylated small molecule ligands for 30 minutes at room temperature to generate affinity resins for kinase assays. The liganded beads were blocked with excess biotin and washed with blocking buffer (SeaBlock (Pierce), 1% BSA, 0.05% Tween 20, 1 mM DTT) to remove unbound ligand and to reduce non-specific binding. […] Test compounds were prepared as 111X stocks in 100% DMSO. Dissociation constants (Kds) were determined using an 11-point 3-fold compound dilution series with three DMSO control points. […] The kinase concentration in the eluates was measured by qPCR.
# An 11-point 3-fold serial dilution of each test compound was prepared in 100% DMSO at 100× final test concentration and subsequently diluted to 1× in the assay (final DMSO concentration=1%). Most Kds were determined using a compound top concentration=30,000 nM. […]
# as §3
# TYK2/JAK1 pathway = test: Selectivity: TYK2/JAK1 pathway, IFN-α-induced p-STAT1 in human PBMC, western blot; assay type: cell-based; settings: IFN-α 100 ng/mL, western blot
# Protocol: Commercial human PBMC (peripheral blood mononuclear cells) were centrifuged (400 g) for 10 min, counted and planted on 6-well plates (5 million/well). Then, the compounds to be tested were added for 2 hours and IFN-α (100 ng/mL) was added to stimulate cells for 15 minutes. Protein lysate was used to lysate cells, and BCA kit was used for protein quantification. Finally, p-STAT1/STAT1, P-TYK2/TYK2 and internal reference protein B-Actin were detected by Western blot.
# JAK2/JAK2 pathway = test: Selectivity: JAK2/JAK2 pathway, TPO-induced p-STAT3 in MEG-1 cells, western blot; assay type: cell-based; settings: TPO 100 ng/mL
# Protocol: MEG-1 cells were digested by trypsin, re-suspended in 1640 medium and counted. The compounds to be measured were added to 6 well plates (1 million/per well) for 2 hours, and then TPO (final concentration: 100 ng/mL) was added to stimulate cells for 30 minutes. The cells were collected and lysed with protein lysate. The protein was quantitatively tested by BCA kit. Finally, p-STAT3/STAT3 and internal reference protein β-actin were detected by western blot.
# JAK1/JAK2 pathway = test: Selectivity: JAK1/JAK2 pathway, IFN-γ-induced p-STAT1 in HT-29 cells, western blot; assay type: cell-based; settings: IFN-γ 100 ng/mL
# Protocol: HT-29 cells were digested by trypsin and suspended in DMEM medium and counted. The tested compounds were added into 6 well plates (400 000/per well) for 2 hours, then IFN-γ (100 ng/mL) was added to stimulate cells for 30 minutes. The cells were collected and lysed with protein lysate. The protein was quantitatively tested by BCA kit. Finally, p-STAT1/STAT1 and internal reference protein β-actin were detected by western blot.
# IL-23 induced psoriasis = IL-23 induced psoriasis in mice (ear thickness); assay type: in vivo; settings: oral gavage twice a day, 14 days, B41 10 and 30 mg/kg, BMS986165 10 mg/kg
# Protocol: Recombinant human IL-23 (100 ng/time/mouse) was injected into the right ear of mice every two days starting from day 1 of the study. The administration group included 7 mice, with EtOH:TPGS:PEG300=[…] as vehicle, compound B41 (10 mg/kg, 30 mg/kg) or BMS986165 (10 mg/kg) orally gavage twice a day the night before the first injection of IL-23. The control group was injected with vehicle alone. The experiment lasted for 14 days. The thickness of the ear was measured with a micrometer every two days.
# JAK1/JAK3 pathway = test: Selectivity: JAK1/JAK3 pathway, IL-2-induced p-STAT5 in human PBMC, western blot; assay type: cell-based; settings: IL-2 100 ng/mL
# Protocol: Commercial human PBMC (peripheral blood mononuclear cells) were centrifuged (400 g) for 10 min, counted and seeded into 6-well plates (5 million/well). The compounds to be tested were added for 2 hours and then IL-2 (100 ng/mL) was added to stimulate cells for 15 minutes. Finally, p-STAT5/STAT5 and internal reference protein β-actin were detected by Western blot.
# JAK1 JH1, sequence (P23458 875-1153): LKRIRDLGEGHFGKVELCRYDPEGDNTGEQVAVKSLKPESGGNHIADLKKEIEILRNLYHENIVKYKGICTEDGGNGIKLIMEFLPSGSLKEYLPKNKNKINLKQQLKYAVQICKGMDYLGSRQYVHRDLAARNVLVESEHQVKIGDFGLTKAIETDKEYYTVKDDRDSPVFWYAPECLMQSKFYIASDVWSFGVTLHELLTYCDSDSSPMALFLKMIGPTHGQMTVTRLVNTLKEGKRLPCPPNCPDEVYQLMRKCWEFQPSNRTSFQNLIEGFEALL
# TYK2 JH2, sequence (P29597 589-875): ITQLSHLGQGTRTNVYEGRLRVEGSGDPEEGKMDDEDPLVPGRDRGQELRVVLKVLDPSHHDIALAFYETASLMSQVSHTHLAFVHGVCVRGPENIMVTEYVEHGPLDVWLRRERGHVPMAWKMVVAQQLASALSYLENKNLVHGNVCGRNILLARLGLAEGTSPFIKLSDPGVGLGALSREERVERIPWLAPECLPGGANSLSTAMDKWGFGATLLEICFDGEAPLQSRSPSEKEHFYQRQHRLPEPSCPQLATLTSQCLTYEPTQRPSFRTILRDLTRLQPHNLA
# TYK2, sequence (Q9R117 whole entry): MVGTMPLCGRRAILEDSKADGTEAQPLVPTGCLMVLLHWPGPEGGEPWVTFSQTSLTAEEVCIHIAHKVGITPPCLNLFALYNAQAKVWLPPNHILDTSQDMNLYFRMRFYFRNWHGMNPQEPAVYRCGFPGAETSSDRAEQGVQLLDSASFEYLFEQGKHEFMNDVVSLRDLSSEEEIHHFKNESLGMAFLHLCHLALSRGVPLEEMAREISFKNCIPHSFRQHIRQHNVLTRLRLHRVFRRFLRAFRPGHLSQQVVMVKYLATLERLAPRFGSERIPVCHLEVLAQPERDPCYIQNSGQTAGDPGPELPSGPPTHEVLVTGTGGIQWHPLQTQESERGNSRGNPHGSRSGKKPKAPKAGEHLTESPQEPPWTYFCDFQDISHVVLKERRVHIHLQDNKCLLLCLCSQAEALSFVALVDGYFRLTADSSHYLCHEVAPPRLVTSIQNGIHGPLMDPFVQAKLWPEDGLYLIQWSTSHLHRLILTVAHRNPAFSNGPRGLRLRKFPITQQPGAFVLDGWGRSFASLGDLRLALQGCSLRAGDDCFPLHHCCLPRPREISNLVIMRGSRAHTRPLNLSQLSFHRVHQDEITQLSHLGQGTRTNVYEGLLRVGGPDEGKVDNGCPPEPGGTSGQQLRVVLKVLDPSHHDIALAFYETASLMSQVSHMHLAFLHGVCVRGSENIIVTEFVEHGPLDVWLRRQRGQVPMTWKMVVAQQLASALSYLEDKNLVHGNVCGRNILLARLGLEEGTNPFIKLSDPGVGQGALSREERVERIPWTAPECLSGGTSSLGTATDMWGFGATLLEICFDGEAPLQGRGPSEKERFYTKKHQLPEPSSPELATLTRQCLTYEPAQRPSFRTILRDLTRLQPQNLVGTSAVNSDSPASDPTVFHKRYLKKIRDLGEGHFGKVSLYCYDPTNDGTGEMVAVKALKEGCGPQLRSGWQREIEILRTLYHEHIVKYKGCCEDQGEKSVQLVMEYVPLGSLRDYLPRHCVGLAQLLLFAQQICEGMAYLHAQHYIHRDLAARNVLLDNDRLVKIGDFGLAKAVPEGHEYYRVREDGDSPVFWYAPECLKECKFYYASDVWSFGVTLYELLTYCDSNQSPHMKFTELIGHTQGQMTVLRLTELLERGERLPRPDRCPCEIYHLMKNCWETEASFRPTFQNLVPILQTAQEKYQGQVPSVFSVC
# JAK2 JH1, sequence (O60674 849-1124): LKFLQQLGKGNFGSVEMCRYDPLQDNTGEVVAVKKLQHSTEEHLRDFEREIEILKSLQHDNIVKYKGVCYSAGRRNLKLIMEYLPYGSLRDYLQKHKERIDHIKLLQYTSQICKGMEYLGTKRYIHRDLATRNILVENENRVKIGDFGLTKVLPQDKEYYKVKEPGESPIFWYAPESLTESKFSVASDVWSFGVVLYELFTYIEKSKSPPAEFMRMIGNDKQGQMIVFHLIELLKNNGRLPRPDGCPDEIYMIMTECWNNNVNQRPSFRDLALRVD
# hERG channel, sequence (Q12809 whole entry): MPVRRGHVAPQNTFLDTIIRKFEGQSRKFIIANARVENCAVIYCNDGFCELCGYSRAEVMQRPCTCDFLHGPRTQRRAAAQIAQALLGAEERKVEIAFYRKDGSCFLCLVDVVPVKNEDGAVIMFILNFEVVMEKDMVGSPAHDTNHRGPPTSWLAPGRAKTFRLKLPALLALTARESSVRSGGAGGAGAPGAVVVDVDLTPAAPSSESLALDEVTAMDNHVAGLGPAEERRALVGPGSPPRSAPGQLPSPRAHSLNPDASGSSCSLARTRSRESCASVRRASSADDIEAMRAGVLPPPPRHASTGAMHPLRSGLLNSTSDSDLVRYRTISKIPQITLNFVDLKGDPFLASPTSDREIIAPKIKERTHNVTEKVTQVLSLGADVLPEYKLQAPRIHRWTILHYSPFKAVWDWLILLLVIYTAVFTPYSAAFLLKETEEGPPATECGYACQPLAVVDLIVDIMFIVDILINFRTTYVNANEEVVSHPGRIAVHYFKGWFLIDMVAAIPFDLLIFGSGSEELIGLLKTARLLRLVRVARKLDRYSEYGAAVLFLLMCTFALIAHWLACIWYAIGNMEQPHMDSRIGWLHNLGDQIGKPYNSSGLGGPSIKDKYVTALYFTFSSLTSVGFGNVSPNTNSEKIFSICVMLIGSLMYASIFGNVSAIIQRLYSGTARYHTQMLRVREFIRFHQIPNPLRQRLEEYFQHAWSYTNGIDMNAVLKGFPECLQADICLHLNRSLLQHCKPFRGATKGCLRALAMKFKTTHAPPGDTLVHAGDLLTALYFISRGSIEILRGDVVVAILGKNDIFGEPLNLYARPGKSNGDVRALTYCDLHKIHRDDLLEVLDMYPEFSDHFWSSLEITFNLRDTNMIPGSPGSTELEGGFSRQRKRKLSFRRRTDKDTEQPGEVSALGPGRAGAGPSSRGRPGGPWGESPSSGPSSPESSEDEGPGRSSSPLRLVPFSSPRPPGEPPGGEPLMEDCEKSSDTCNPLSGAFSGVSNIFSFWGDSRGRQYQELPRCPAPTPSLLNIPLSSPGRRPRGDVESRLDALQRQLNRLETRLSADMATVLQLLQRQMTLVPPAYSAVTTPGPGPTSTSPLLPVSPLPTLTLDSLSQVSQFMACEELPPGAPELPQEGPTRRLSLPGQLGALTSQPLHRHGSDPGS
Compound,inhibition at 1 µM (TYK2; 1000 nM) [%],Kd (JAK1 JH1) [nM],Kd (TYK2 JH2) [nM],further results
"COc1cc(N)c(Cl)cc1C(=O)NC1CCN(CCCOc2ccc(F)cc2)CC1OC (stereo not drawn) [Cisapride, reference compound]",–,–,–,inhibition at 0.1 µM (hERG channel): > 50%
CCC(=O)c1cnc(NC(=O)C2CC2)cc1Nc1cccc(-c2ccc(P(C)(C)=O)cc2)c1OC [Compound B3],88,> 30000,0.4,"inhibition at 0.01 µM (TYK2; 10 nM, read-out: Inhibitory activity % (10 nM)): 21%; inhibition at 0.1 µM (TYK2; 100 nM, read-out: Inhibitory activity % (100 nM)): 46%"
CCC(=O)c1cnc(NC(=O)C2CC2)cc1Nc1cccc(-c2ccc(P(C)(C)=O)cn2)c1OC [Compound B4],58,> 30000,0.032,–
CCC(=O)c1cnc(NC(=O)C2CC2)cc1Nc1cccc(-c2cnc(P(C)(C)=O)cn2)c1OC [Compound B5],80,> 30000,0.095,–
CCC(=O)c1cnc(NC(=O)C2CC2)cc1Nc1cccc(-c2ncc(P(C)(C)=O)cn2)c1OC [Compound B11],62,> 30000,0.016,–
CCC(=O)c1cnc(NC(=O)C2CC2)cc1Nc1nccc(-c2cc(P(=O)(C3CC3)C3CC3)n(C)n2)c1OC [Compound B38],95,> 30000,0.0079,IC50 [1]: 222 nM; Kd (JAK2 JH1): 11000 nM; inhibition of downstream STAT1 phosphorylation induced by IFN-α (TYK2/JAK1 pathway): effectively inhibit
"N#CC[C@H](C1CCCC1)n1cc(-c2ncnc3[nH]ccc23)cn1 [Ruxolitinib, reference compound]",–,–,–,effect on TPO-induced downstream STAT3 phosphorylation (JAK2/JAK2 pathway): could inhibit JAK2/JAK2 pathway
BMS986165 [reference compound],–,–,–,effect on TPO-induced downstream STAT3 phosphorylation (JAK2/JAK2 pathway): no effect; effect on downstream STAT1 phosphorylation induced by IFN-γ (JAK1/JAK2 pathway): no effect; Inhibitory activity % (50 nM) (TYK2; 50 nM): 74%; Inhibitory activity % (200 nM) (TYK2; 200 nM): 89%; Inhibitory activity % (1000 nM) (TYK2; 1000 nM): 96%; efficacy in IL-23 induced psoriasis (ear thickness) (IL-23 induced psoriasis): effectively inhibit and treat; effect on IL-2-induced downstream STAT5 phosphorylation (JAK1/JAK3 pathway): no effect; IC50 [1]: 56.8 nM
